In patent US4172148A, “Ruminant feeds containing trichloroethyl esters of essential amino acids” (E. R. Squibb & Sons, Inc., priority 1978, dated 1979):

Experiments:
[1] = test system: volatile fatty acid concentrations in the in vitro rumen fermentation; experiment: in vitro rumen fermentation, volatile fatty acids, alfalfa hay:concentrate 3:1 (Examples 3 and 12); design: species or system sheep; details: 0.2 mg/ml; 6 h, 39° C.
Description: (§1) A one gram sample of substrate ground through a 1 mm screen is weighed into 100 ml. lipless beakers equipped with gas-release valves. The substrate consists of alfalfa hay containing approximately 16% protein and a concentrate containing ground corn 60.7%, alfalfa meal 17.5%, molasses 10.0%, soybean meal 5.3%, wheat bran 5.0%, trace mineralized salt 1.0%, limestone 0.5% and Vitamin D 300,000 I.U./ton, mixed in the proportion 3:1. The experimental composition is added to the substrate. 25 ml. of filtered rumen fluid obtained from fasted sheep maintained on feed the same as the above mentioned substrate and 25 ml. of McDougal's buffer solution serve as the inoculum. The buffer solution is as follows:
(§2) The fermentation mixture is flushed with carbon dioxide and the vessel is capped with a gas release valve. The fermentation vessel (beaker) is placed in a water bath and incubated at 39° C.±1° for six hours. The sample is mixed every hour by shaking the beaker.
(§3) At the end of the 6-hour fermentation period the sample is strained through 4 layers of cheesecloth into a sample bottle containing 1 ml. saturated solution of mercuric chloride. The sample is frozen immediately until analyzed for the volatile fatty acids (VFA) (mg/100 ml.). Prior to analysis, each sample is acidified with 30% phosphoric acid and then analyzed by gas chromatography using a column containing 5% nonylphenoxypolyoxyethylene ethanol plus 0.5% phosphoric acid on 100-120 mesh Gas Chrom S. The acids determined are acetic, propionic, butyric, isobutyric, valeric and isovaleric acids. Total VFA is considered as the addition of these acids. The ratio of acetic: propionic (A:P) is obtained by dividing the concentration of acetic acid by that of propionic acid.
The effect of various compounds alone on the volatile fatty acid concentrations was determined by the procedure of Example 3. […] A direct comparison between phenylalanine and phenylalanine trichloroethyl ester is provided.

[2] = test system: volatile fatty acid concentrations in fistulated sheep; experiment: volatile fatty acid concentrations in vivo in fistulated sheep, 227 g concentrate and 680 g alfalfa hay (Examples 5 and 8)
Excerpt: Mature sheep (wethers) fitted with permanent rumen fistulae were used to determine the effect of L-phenylalanine, 2,2,2-trichloroethyl ester on volatile fatty acid concentrations in vivo (3 wethers per treatment). The animals were individually penned and fed 227 g. of concentrate (described in Example 3) and 680 g. of alfalfa hay once daily. The test compound was admixed with the concentrate. The sheep were medicated for 7 days. Samples for analysis were obtained before (Day 0) and after treatment (Day 7) approximately 6 hours after feeding.

[3] = test system: growing lambs; experiment: body weight gain and feed efficiency of growing lambs (Examples 9-11); format: in vivo, lambs (sheep); details: 0.0044% (40 g/ton) in feed
Description: A test was conducted to determine if feeding L-phenylalanine, 2,2,2-trichloroethyl ester to growing lambs was effective in improving growth and feed efficiency. Wether and ewe lambs were divided into groups of 30 lambs each. They were acclimated to their pens for 2 weeks prior to treatment.
The feed supplied to the animals had the following composition
The test compound in an amount of 0.0055% (50 g/ton) was admixed with the above feed composition.
Body weights and feed consumption were recorded at 0, 2, 4 and 6 weeks. Feed efficiencies were calculated.
The test procedure of Example 9 was followed to test the growth effect and feed efficiency of glycine 2,2,2-trichloroethyl ester on growing lambs. The feed composition of Example 9 was used but contained glycine 2,2,2-trichloroethyl ester in an amount of 0.0044% (40 g/ton). There were 44 lambs in the control group receiving the feed composition without additive and 42 lambs receiving the feed composition containing the amino acid ester.
The test procedure of Example 9 was followed to test the growth effect and feed efficiency of L-phenylalanine 2,2,2-trichloroethyl ester on growing lambs. The feed composition of Example 9 was used but contained 0.0088% (80 g/ton) of this amino acid ester. There were 59 lambs in the control group fed the feed without additive and 58 lambs in the group fed the feed composition containing the test compound.

[4] = test system: volatile fatty acid concentrations in the in vitro rumen fermentation; experiment: in vitro rumen fermentation, volatile fatty acids, high concentrate substrate, alfalfa hay:concentrate 1:3 (Examples 4 and 7); design: species or system sheep; details: for Acetic acid / Acetic:propionic / Butyric acid / Propionic acid / Total acids: hay:concentrate 1:3
Description: as §1, §2, §3
The procedure is described in Example 3. In this example, however, the substrate consisted of alfalfa hay and concentrate in the ratio of 1:3 and inoculum was obtained from sheep fed alfalfa and concentrate in the ratio of 1:3. The concentrate (Fit-N-Fresh) is commercially available from Agway, Inc. and contains grain products, plant protein products, processed grain by-products, cane molasses, minerals, vitamins and a preservative.
The 2,2,2-trichloroethyl ester of glycine was tested in vitro in a manner similar to that described in Example 4.

SMILES: N[C@@H](Cc1ccc(Cl)cc1)C(=O)O (racemic) [p-chlorophenylalanine, reference compound]
- Acetic acid [1]: 91 % of control
- Acetic:propionic [1]: 101 % of control
- Butyric acid [1]: 92 % of control
- Propionic acid [1]: 91 % of control
- Total acids [1]: 91 % of control

SMILES: Br.NCC(=O)OCC(Cl)(Cl)Cl [2,2,2-trichloroethyl ester of glycine, aminoacetic acid 2,2,2-trichloroethyl ester, hydrobromide]
- Acetic:propionic ratio ([2]; Example 8, 500 mg/head/day, treatment, pre-treatment 3.36, control treatment 3.38): 2.86
- Other acids (%) ([2]; Example 8, 500 mg/head/day, treatment, pre-treatment 6.1, control treatment 4.2): 6.6%
- Butyric acid (%) ([2]; Example 8, 500 mg/head/day, treatment, pre-treatment 15.1, control treatment 14.6): 17.9%
- Propionic acid (%) ([2]; Example 8, 500 mg/head/day, treatment, pre-treatment 18.1, control treatment 18.6): 19.6%
- Acetic acid (%) ([2]; Example 8, 500 mg/head/day, treatment, pre-treatment 60.8, control treatment 62.7): 56.0%
- Total acid ([2]; Example 8, 500 mg/head/day, treatment, pre-treatment 715, control treatment 678): 731 mg/100 ml
- effect on acetic:propionic ratio (in words) ([2]; fistulated sheep, 7 days): decreasing the acetic:propionic ratio
- effect on proportion of propionic acid (in words) ([2]; fistulated sheep, 7 days): effective in increasing the proportion of propionic acid
- Weight gain ([3]; 0-2 wks, control 2.32): 2.31 kg
- Weight gain ([3]; 0-4 wks, control 5.09): 5.13 kg
- Feed efficiency ([3]; 0-6 wks, control 0.148): 0.154 gain/feed
- Weight gain ([3]; 0-6 wks, control 7.18): 7.37 kg
- Acetic acid ([4]; 0.2 mg/ml): 79 % of control
- Acetic:propionic ([4]; 0.2 mg/ml): 64 % of control
- Butyric acid ([4]; 0.2 mg/ml): 119 % of control
- Propionic acid ([4]; 0.2 mg/ml): 123 % of control
- Total acids ([4]; 0.2 mg/ml): 98 % of control
- Acetic acid ([4]; 0.4 mg/ml): 79 % of control
- Acetic:propionic ([4]; 0.4 mg/ml): 64 % of control
- Butyric acid ([4]; 0.4 mg/ml): 119 % of control
- Propionic acid ([4]; 0.4 mg/ml): 123 % of control
- Total acids ([4]; 0.4 mg/ml): 98 % of control
- effect on acetic:propionic ratio (in words) ([4]; high concentrate substrate): decreasing the acetic:propionic ratio
- effect on propionic acid concentration (in words) ([4]; high concentrate substrate): effective in increasing propionic acid concentration

SMILES: N[C@@H](Cc1ccccc1)C(=O)O [L-phenylalanine, reference compound]
- Acetic acid [1]: 95 % of control
- Acetic:propionic [1]: 100 % of control
- Butyric acid [1]: 97 % of control
- Propionic acid [1]: 94 % of control
- Total acids [1]: 96 % of control

SMILES: O=CC(Cl)(Cl)Cl [choral, reference compound]
- Acetic acid [1]: 88 % of control
- Acetic:propionic [1]: 80 % of control
- Butyric acid [1]: 110 % of control
- Propionic acid [1]: 110 % of control
- Total acids [1]: 96 % of control
